Experimental findings from US7659310B2, “Methods of enhancing solubility of agents” (Formatech, Inc., priority 2004, dated 2010) are described below.

Data set [1] is described as follows: Solubilization of compounds in fatty acid / fatty acid salt (soluble, formulation clear). The note with it: for solubility: aqueous with cosolvent or surfactant or cyclodextrin. Here is the method: (§1) Ethanolamine (8 μL) was subsequently added and mixed using a VORTEX®. After mixing, the sample was dispersed in 466 μL of water for injection.
(§2) Ethanolamine (62 μL) was subsequently added and mixed using a VORTEX®. After mixing, the sample was dispersed in 784 μL of water for injection.
(§3) Digoxin (1 mg) was added to 28 μL of oleic acid and mixed using VORTEX. Ethanolamine (6 μL) was subsequently added and mixed using a VORTEX®. After mixing, the sample was dispersed in 966 μL of water for injection.
(§4) Digoxin (1 mg) was added to 1 mL of 0.25 M sodium oleate and mixed using a VORTEX®.
(§5) N-acetylsalicylic acid (18 mg) was added to 31 μL of oleic acid and mixed using a VORTEX®. Ethanolamine (6 μL) was subsequently added and mixed using a VORTEX®. After mixing, the sample was dispersed in 963 μL of water for injection.
(§6) N-acetylsalicylic acid (25 mg) was added to 1 mL of 0.25 M sodium oleate and mixed using a VORTEX®.
(§7) Paclitaxel (18 mg) was added to 31 μL of oleic acid and mixed using a VORTEX®. Ethanolamine (6 μL) was subsequently added and mixed using a VORTEX®. After mixing, the sample was dispersed in 963 μL of water for injection.
(§8) Paclitaxel (5.6 mg) was added to 1 mL of 0.1 M sodium oleate and mixed using a VORTEX®.
(§9) Paclitaxel (2 mg) was added to 1 mL of 1 M sodium caprylate and mixed by a VORTEX®.
Paclitaxel (7.2 mg) was added to 1 mL of 1 M sodium linoleate and mixed using a VORTEX®.
For example, β-Lapachone was dissolved (25 mg/mL) in ethanol:oleic acid (EtOH:OA) at volume to volume ratios of 70%:30%, 75%:25%, or 80%:20% EtOH:OA.
In another example, β-Lapachone was dissolved (50 mg/mL) in dimethylsulfoxide:oleic acid (DMSO:OA) at volume to volume ratios of 60%:40, 70%:30% DMSO:OA or in DMSO:EtOH:OA (30%:30%:40% v/v).
For example, Propofol (1% v/v or 10 mg/mL) was dissolved in 100 mM sodium oleate in 5% (w/v) dextrose in water for injection. The resulting solution containing 1% Propofol was lyophilized.
For example, Paclitaxel (5 mg/mL) was dissolved in 100 mM sodium oleate in 100% ethanol. Ethanol was completely evaporated using rotary evaporation at 20° C. The Paclitaxel-sodium oleate was reconstituted with WFI or 2.5% glycerol to provide 5 mg/mL, 10 mg/mL, or 20 mg/mL concentration of Paclitaxel.

The nature of data set [2]: Stability of the solubilized compound (remains soluble) by reverse phase HPLC. Here is the method:
as §1, §2, §3, §4, §5, §6, §7, §8, §9
Paclitaxel (7.2 mg) was added to 1 mL of 1 M sodium linoleate and mixed using a VORTEX®. […]
For example, Propofol (1% v/v or 10 mg/mL) was dissolved in 100 mM sodium oleate in 5% (w/v) dextrose in water for injection. The resulting solution containing 1% Propofol was lyophilized. […]

In general, solubility refers to the concentration that dissolves in the medium under given conditions.

Each structure is given as a SMILES string. Converted amounts (≈) assume the structure as drawn. “And” between values parts separate entries of the source, which are not always exact repeats. Equal entries are not always repeated. Where two headings read alike, the source gives them in different places.

For `C[C@H]1O[C@@H](O[C@H]2[C@@H](O)C[C@H](O[C@H]3[C@@H](O)C[C@H](O[C@H]4CC[C@@]5(C)[C@H](CC[C@@H]6[C@@H]5C[C@@H](O)[C@]5(C)[C@@H](C7=CC(=O)OC7)CC[C@]65O)C4)O[C@@H]3C)O[C@@H]2C)C[C@H](O)[C@@H]1O` [Digoxin], the solubility was 1000 µg/mL in data set [1] (concentration at which soluble and formulation clear, 0.25 M sodium oleate); 1000 µg/mL in data set [1] (concentration at which soluble and formulation clear, oleic acid, then ethanolamine, dispersed in water for injection). For the same compound, the “time remained soluble, formulation stable upon dilution” value (from here on “time remained soluble”) in data set [2] (0.25 M sodium oleate, dilution 1:10 in saline, RP-HPLC) is given as “up to 24 hours”; in data set [2] (oleic acid/ethanolamine formulation, dilution 1:4 in saline, RP-HPLC), “up to 24 hours”.
For the compound `CC(=O)Oc1ccccc1C(=O)O` [N-acetylsalicylic acid], in data set [1], the “concentration at which soluble and formulation clear” value came out at 25 mg/mL. In data set [1] (concentration at which soluble and formulation clear), the solubility was determined as 18000 µg/mL (≈ 99.9 mM). The “time remained soluble” value in data set [2] is “up to 24 hours”.
As to `CC(=O)O[C@H]1C(=O)[C@@]2(C)[C@H]([C@H](OC(=O)c3ccccc3)[C@]3(O)C[C@H](OC(=O)[C@H](O)[C@@H](NC(=O)c4ccccc4)c4ccccc4)C(C)=C1C3(C)C)[C@]1(OC(C)=O)CO[C@@H]1C[C@@H]2O` [Paclitaxel], the “fold greater than the solubility in water” value in data set [1] is on record as 630-850 fold. Further, the concentration dissolved in data set [1] (100 mM sodium oleate in 100% ethanol) was 5 mg/mL. Also, in data set [1] (solubilization), the solubility is 6300 to 8500 µg/mL (≈ 7.38 to 9.95 mM). Besides, the “time remained soluble” value in data set [2] was “up to 24 hours”.
As for `CC(C)c1cccc(C(C)C)c1O` [Propofol], the concentration dissolved in data set [1] (100 mM sodium oleate in 5% (w/v) dextrose in water for injection (1% v/v)) is on record as 10 mg/mL. Besides, the “stability of reconstituted lyophilized compound” value in data set [2] (1% in 100 mM sodium oleate/D5W, lyophilized and reconstituted, RP-HPLC) is recorded as “stable without degradation or impurities”.
`CC1(C)CCC2=C(O1)c1ccccc1C(=O)C2=O` [β-Lapachone]: the “final concentration of the dispersed compound” value in data set [1] (OA-DMSO/EtOH mixture dispersed in equimolar sodium hydroxide solution) was 1.5 mg/mL and 2.0 mg/mL and 2.5 mg/mL. Also, the concentration dissolved was 50 mg/mL in data set [1] (in DMSO:OA 60%:40, 70%:30% or DMSO:EtOH:OA 30%:30%:40% v/v) and 25 mg/mL in data set [1] (in ethanol:oleic acid 70%:30%, 75%:25% or 80%:20% v/v).
